target: T1, human glucocorticoid receptor (GR) complex (Homo sapiens, UniProt P04150); assay: Glucocorticoid receptor competitive binding assay (fluorescence polarization); details: competition with TAMRA-labeled dexamethasone, result in words only
T1 construct: made in house; host or cells: insect expression system (baculovirus lysate)
T1 sequence (P04150 1-777): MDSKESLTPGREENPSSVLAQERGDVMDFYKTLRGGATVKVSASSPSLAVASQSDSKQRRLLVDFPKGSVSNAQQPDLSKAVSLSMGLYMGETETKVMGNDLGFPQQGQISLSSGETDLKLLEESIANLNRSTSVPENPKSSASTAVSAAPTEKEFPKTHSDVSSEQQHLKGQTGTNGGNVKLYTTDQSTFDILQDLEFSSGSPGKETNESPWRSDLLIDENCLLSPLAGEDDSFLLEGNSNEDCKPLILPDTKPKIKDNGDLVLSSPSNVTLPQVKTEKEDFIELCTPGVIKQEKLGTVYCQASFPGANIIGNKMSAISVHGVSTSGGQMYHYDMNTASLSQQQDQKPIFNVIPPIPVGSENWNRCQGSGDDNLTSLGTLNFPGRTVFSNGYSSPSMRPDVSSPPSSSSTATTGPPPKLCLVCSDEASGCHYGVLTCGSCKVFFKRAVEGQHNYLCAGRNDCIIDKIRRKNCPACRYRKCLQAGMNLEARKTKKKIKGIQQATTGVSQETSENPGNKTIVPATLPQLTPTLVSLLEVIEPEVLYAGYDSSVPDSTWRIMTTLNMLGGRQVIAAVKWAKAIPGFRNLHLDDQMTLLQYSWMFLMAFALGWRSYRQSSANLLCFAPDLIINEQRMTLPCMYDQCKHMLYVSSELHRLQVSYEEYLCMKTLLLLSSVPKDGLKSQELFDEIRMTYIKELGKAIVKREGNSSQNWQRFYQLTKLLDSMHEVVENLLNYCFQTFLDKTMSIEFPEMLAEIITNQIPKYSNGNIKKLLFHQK
Description: Compounds of the invention were evaluated for binding to the steroid receptor by a fluorescence polarization competitive binding assay.
The wavelengths for maximum excitation and emission of the fluorescent probe should first be measured. An example of such a probe is rhodamine (TAMRA)-labeled dexamethasone.
The affinity of the probe for the steroid receptor was then determined in a titration experiment. The fluorescence polarization value of the probe in assay buffer was measured on an SLM-8100 fluorometer using the excitation and emission maximum values described above. Aliquots of expression vector lysate were added and fluorescence polarization was measured after each addition until no further change in polarization value was observed. Non-linear least squares regression analysis was used to calculate the dissociation constant of the probe from the polarization values obtained for lysate binding to the probe.
This assay uses fluorescence polarization (FP) to quantitate the ability of test compounds to compete with tetramethyl rhodamine (TAMRA)-labeled dexamethasone for binding to a human glucocorticoid receptor (GR) complex prepared from an insect expression system. The assay buffer was: 10 mM TES, 50 mM KCl, 20 mM Na2MoO4.2H2O, 1.5 mM EDTA, 0.04% w/v CHAPS, 10% v/v glycerol, 1 mM dithiothreitol, pH 7.4. Test compounds were dissolved to 1 mM in neat DMSO and then further diluted to 10× assay concentration in assay buffer supplemented with 10% v/v DMSO. Test compounds were serially diluted at 10× assay concentrations in 10% DMSO-containing buffer in 96-well polypropylene plates. Binding reaction mixtures were prepared in 96-well black Dynex microtiter plates by sequential addition of the following assay components to each well: 15 μL of 10× test compound solution, 85 μL of GR-containing baculovirus lysate diluted 1:170 in assay buffer, and 50 μL of 15 nM TAMRA-labeled dexamethasone. Positive controls were reaction mixtures containing no test compound; negative controls (blanks) were reaction mixtures containing 0.7 μM to 2 μM dexamethasone. […] IC50 values were determined by iterative non-linear curve fitting of the FP signal data to a 4-parameter logistic equation.

| Structure (SMILES) | activity in the GR binding assay |
| --- | --- |
| CC(C)(CC(O)(Cn1cc(Cl)c(=O)c2cnccc21)C(F)(F)F)c1cccc2c1OCO2 (stereo not shown) [1-(4-Benzo[1,3]dioxol-4-yl-2-hydroxy-4-methyl-2-trifluoromethylpentyl)-3-chloro-1H-[1,6]naphthyridin-4-one] | potent activity |
| CC(C)(CC(O)(Cn1ccc(=O)c2cnccc21)C(F)(F)F)c1cc(-c2cncnc2)cc2c1OCC2 (stereo not shown) [1-[2-Hydroxy-4-methyl-4-(5-pyrimidin-5-yl-2,3-dihydrobenzofuran-7-yl)-2-trifluoromethylpentyl]-1H-[1,6]naphthyridin-4-one] | potent activity |
| CC(C)(CC(O)(Cn1ccc(=O)c2cnccc21)C(F)(F)F)c1cc(F)ccc1O (stereo not shown) [1-[4-(5-Fluoro-2-hydroxyphenyl)-2-hydroxy-4-methyl-2-trifluoromethylpentyl]-1H-[1,6]naphthyridin-4-one] | potent activity |
| COc1ccc(F)cc1C(C)(C)CC(O)(Cn1ccc(=O)c2cnccc21)C(F)(F)F (stereo not shown) [1-[4-(5-Fluoro-2-methoxyphenyl)-2-hydroxy-4-methyl-2-trifluoromethylpentyl]-1H-[1,6]naphthyridin-4-one] | potent activity |
| Cc1ccc(F)cc1C(C)(C)CC(O)(Cn1ccc(=O)c2cnccc21)C(F)(F)F (stereo not shown) [1-[4-(5-Fluoro-2-methylphenyl)-2-hydroxy-4-methyl-2-trifluoromethylpentyl]-1H-[1,6]naphthyridin-4-one] | potent activity |
| CC(C)(CC(O)(Cn1cc(Cl)c(=O)c2cnccc21)C(F)(F)F)c1cc(-c2cccnc2)cc2c1OCC2 (stereo not shown) [3-Chloro-1-[2-hydroxy-4-methyl-4-(5-pyridin-3-yl-2,3-dihydrobenzofuran-7-yl)-2-trifluoromethylpentyl]-1H-[1,6]naphthyridin-4-one] | potent activity |
| CC(C)(CC(O)(Cn1cc(Cl)c(=O)c2cnccc21)C(F)(F)F)c1cc(-c2cncnc2)cc2c1OCC2 (stereo not shown) [3-Chloro-1-[2-hydroxy-4-methyl-4-(5-pyrimidin-5-yl-2,3-dihydrobenzofuran-7-yl)-2-trifluoromethylpentyl]-1H-[1,6]naphthyridin-4-one] | potent activity |
| CC(C)(CC(O)(Cn1cc(Cl)c(=O)c2sccc21)C(F)(F)F)c1cccc2c1OCO2 (stereo not shown) [4-(4-Benzo[1,3]dioxol-4-yl-2-hydroxy-4-methyl-2-trifluoromethylpentyl)-6-chloro-4H-thieno[3,2-b]pyridin-7-one] | potent activity |
| CC(C)(CC(O)(Cn1ccc(=O)c2sccc21)C(F)(F)F)c1cccc(-c2ccccc2)c1 (stereo not shown) [4-(4-Biphenyl-3-yl-2-hydroxy-4-methyl-2-trifluoromethylpentyl)-4H-thieno[3,2-b]pyridin-7-one] | potent activity |
| CC(C)(CC(O)(Cn1cc(Cl)c(=O)c2sccc21)C(F)(F)F)c1cccc(-c2ccccc2)c1 (stereo not shown) [4-(4-Biphenyl-3-yl-2-hydroxy-4-methyl-2-trifluoromethylpentyl)-6-chloro-4H-thieno[3,2-b]pyridin-7-one] | potent activity |
| Cc1cccc(C(C)(C)CC(O)(Cn2ccc(=O)c3sccc32)C(F)(F)F)c1O (stereo not shown) [4-[2-Hydroxy-4-(2-hydroxy-3-methylphenyl)-4-methyl-2-trifluoromethylpentyl]-4H-thieno[3,2-b]pyridin-7-one] | potent activity |
| CC(C)(CC(O)(Cn1ccc(=O)c2sccc21)C(F)(F)F)c1cc(-c2cncnc2)ccc1O (stereo not shown) [4-[2-Hydroxy-4-(2-hydroxy-5-pyrimidin-5-ylphenyl)-4-methyl-2-trifluoromethylpentyl]-4H-thieno[3,2-b]pyridin-7-one] | potent activity |
| COc1c(C)cccc1C(C)(C)CC(O)(Cn1ccc(=O)c2sccc21)C(F)(F)F (stereo not shown) [4-[2-Hydroxy-4-(2-methoxy-3-methylphenyl)-4-methyl-2-trifluoromethylpentyl]-4H-thieno[3,2-b]pyridin-7-one] | potent activity |
| COc1ccc(-c2cccnc2)cc1C(C)(C)CC(O)(Cn1ccc(=O)c2sccc21)C(F)(F)F (stereo not shown) [4-[2-Hydroxy-4-(2-methoxy-5-pyridin-3-ylphenyl)-4-methyl-2-trifluoromethylpentyl]-4H-thieno[3,2-b]pyridin-7-one] | potent activity |
| COc1ccccc1C(C)(C)CC(O)(Cn1ccc(=O)c2sccc21)C(F)(F)F (stereo not shown) [4-[2-Hydroxy-4-(2-methoxyphenyl)-4-methyl-2-trifluoromethylpentyl]-4H-thieno[3,2-b]pyridin-7-one] | potent activity |
| CC(C)(CC(O)(Cn1ccc(=O)c2sccc21)C(F)(F)F)c1cc(-c2cncnc2)cc2c1OCC2 (stereo not shown) [4-[2-Hydroxy-4-methyl-4-(5-pyrimidin-5-yl-2,3-dihydrobenzofuran-7-yl)-2-trifluoromethylpentyl]-4H-thieno[3,2-b]pyridin-7-one] | potent activity |
| CC(C)(CC(O)(Cn1ccc(=O)c2sccc21)C(F)(F)F)c1cccc2c1OCC2 (stereo not shown) [4-[4-(2,3-Dihydrobenzofuran-7-yl)-2-hydroxy-4-methyl-2-trifluoromethylpentyl]-4H-thieno[3,2-b]pyridin-7-one] | potent activity |
| Cc1cccc(C(C)(C)CC(O)(Cn2ccc(=O)c3sccc32)C(F)(F)F)c1OC(F)F (stereo not shown) [4-[4-(2-Difluoromethoxy-3-methylphenyl)-2-hydroxy-4-methyl-2-trifluoromethylpentyl]-4H-thieno[3,2-b]pyridin-7-one] | potent activity |
| COc1c(Br)cccc1C(C)(C)CC(O)(Cn1ccc(=O)c2sccc21)C(F)(F)F (stereo not shown) [4-[4-(3-Bromo-2-methoxyphenyl)-2-hydroxy-4-methyl-2-trifluoromethylpentyl]-4H-thieno[3,2-b]pyridin-7-one] | potent activity |
| COc1ccc(F)cc1C(C)(C)CC(O)(Cn1ccc(=O)c2sccc21)C(F)(F)F (stereo not shown) [4-[4-(5-Fluoro-2-methoxyphenyl)-2-hydroxy-4-methyl-2-trifluoromethylpentyl]-4H-thieno[3,2-b]pyridin-7-one] | potent activity |
| Cc1ccc(F)cc1C(C)(C)CC(O)(Cn1ccc(=O)c2sccc21)C(F)(F)F (stereo not shown) [4-[4-(5-Fluoro-2-methylphenyl)-2-hydroxy-4-methyl-2-trifluoromethylpentyl]-4H-thieno[3,2-b]pyridin-7-one] | potent activity |
| CC(C)(CC(O)(Cn1cc(Br)c(=O)c2sccc21)C(F)(F)F)c1cccc2c1OCC2 (stereo not shown) [6-Bromo-4-[4-(2,3-dihydrobenzofuran-7-yl)-2-hydroxy-4-methyl-2-trifluoromethylpentyl]-4H-thieno[3,2-b]pyridin-7-one] | potent activity |
| COc1ccc(-c2cccnc2)cc1C(C)(C)CC(O)(Cn1cc(Cl)c(=O)c2sccc21)C(F)(F)F (stereo not shown) [6-Chloro-4-[2-hydroxy-4-(2-methoxy-5-pyridin-3-ylphenyl)-4-methyl-2-trifluoromethylpentyl]-4H-thieno[3,2-b]pyridin-7-one] | potent activity |
| COc1ccc(-c2cncnc2)cc1C(C)(C)CC(O)(Cn1cc(Cl)c(=O)c2sccc21)C(F)(F)F (stereo not shown) [6-Chloro-4-[2-hydroxy-4-(2-methoxy-5-pyrimidin-5-ylphenyl)-4-methyl-2-trifluoromethylpentyl]-4H-thieno[3,2-b]pyridin-7-one] | potent activity |
| CC(C)(CC(O)(Cn1cc(Cl)c(=O)c2sccc21)C(F)(F)F)c1cc(-c2cccnc2)cc2c1OCC2 (stereo not shown) [6-Chloro-4-[2-hydroxy-4-methyl-4-(5-pyridin-3-yl-2,3-dihydrobenzofuran-7-yl)-2-trifluoromethylpentyl]-4H-thieno[3,2-b]pyridin-7-one] | potent activity |
